Data published in the NIST ThermoML archive (doi:10.1021/je700406p).

Assay: wn = mass fraction of the nth substance listed
Settings: Liquid, Vibrating tube method

CC(C)(N)CO [2-amino-2-methylpropan-1-ol] + O
Settings	mass density [kg/m3]
323.09 K, 19985 kPa, w1 = 0.4976	978
323.09 K, 20939 kPa, w1 = 0.4976	978.4
323.1 K, 513 kPa, w1 = 0.1997	984.2
323.1 K, 1002 kPa, w1 = 0.4002	978
323.1 K, 1007 kPa, w1 = 0.1997	984.4
323.1 K, 2005 kPa, w1 = 0.1997	984.8
323.1 K, 2023 kPa, w1 = 0.4002	978.4
323.1 K, 3001 kPa, w1 = 0.4002	978.9
323.1 K, 3005 kPa, w1 = 0.1997	985.1
323.1 K, 4001 kPa, w1 = 0.1997	985.5
323.1 K, 4011 kPa, w1 = 0.4002	979.2
323.1 K, 5000 kPa, w1 = 0.1997	986
323.1 K, 5000 kPa, w1 = 0.4002	979.7
323.1 K, 6002 kPa, w1 = 0.4002	980
323.1 K, 6003 kPa, w1 = 0.1997	986.3
323.1 K, 6999 kPa, w1 = 0.4002	980.4
323.1 K, 7003 kPa, w1 = 0.1997	986.8
323.1 K, 7990 kPa, w1 = 0.4002	980.8
323.1 K, 8001 kPa, w1 = 0.1997	987.1
323.1 K, 9002 kPa, w1 = 0.4002	981.2
323.1 K, 9013 kPa, w1 = 0.1997	987.5
323.1 K, 9990 kPa, w1 = 0.4002	981.6
323.1 K, 10002 kPa, w1 = 0.1997	987.9
323.1 K, 10992 kPa, w1 = 0.4002	982
323.1 K, 11001 kPa, w1 = 0.1997	988.3
323.1 K, 11996 kPa, w1 = 0.4002	982.5
323.1 K, 12004 kPa, w1 = 0.1997	988.7
323.1 K, 12990 kPa, w1 = 0.4002	982.8
323.1 K, 13009 kPa, w1 = 0.1997	989
323.1 K, 13994 kPa, w1 = 0.4002	983.2
323.1 K, 13999 kPa, w1 = 0.1997	989.4
323.1 K, 14992 kPa, w1 = 0.4002	983.6
323.1 K, 15001 kPa, w1 = 0.1997	989.8
323.1 K, 15995 kPa, w1 = 0.4002	984
323.1 K, 16002 kPa, w1 = 0.1997	990.2
323.1 K, 16986 kPa, w1 = 0.4002	984.4
323.1 K, 17001 kPa, w1 = 0.1997	990.6
323.1 K, 17993 kPa, w1 = 0.4002	984.8
323.1 K, 18004 kPa, w1 = 0.1997	991
323.1 K, 18995 kPa, w1 = 0.4002	985.1
323.1 K, 19000 kPa, w1 = 0.1997	991.4
323.1 K, 19992 kPa, w1 = 0.4002	985.5
323.1 K, 20030 kPa, w1 = 0.1997	991.7
323.1 K, 21005 kPa, w1 = 0.1997	992.1
323.1 K, 21297 kPa, w1 = 0.4002	986
323.1 K, 22004 kPa, w1 = 0.1997	992.5
323.1 K, 22998 kPa, w1 = 0.1997	992.9
323.1 K, 24004 kPa, w1 = 0.1997	993.3
332.01 K, 1005 kPa, w1 = 0.2821	976.1
332.01 K, 2004 kPa, w1 = 0.2821	976.5
332.01 K, 2997 kPa, w1 = 0.2821	977
332.01 K, 4002 kPa, w1 = 0.2821	977.4
332.01 K, 5002 kPa, w1 = 0.2821	977.8
332.01 K, 5997 kPa, w1 = 0.2821	978.2
332.01 K, 6999 kPa, w1 = 0.2821	978.6
332.01 K, 7996 kPa, w1 = 0.2821	979
332.01 K, 8992 kPa, w1 = 0.2821	979.4
332.01 K, 9994 kPa, w1 = 0.2821	979.8
332.01 K, 11040 kPa, w1 = 0.2821	980.2
332.01 K, 11992 kPa, w1 = 0.2821	980.6
332.01 K, 12990 kPa, w1 = 0.2821	981
332.01 K, 13989 kPa, w1 = 0.2821	981.4
332.01 K, 14989 kPa, w1 = 0.2821	981.8
332.01 K, 15990 kPa, w1 = 0.2821	982.2
332.01 K, 17000 kPa, w1 = 0.2821	982.5
332.01 K, 17987 kPa, w1 = 0.2821	982.9
332.01 K, 18991 kPa, w1 = 0.2821	983.3
332.01 K, 19984 kPa, w1 = 0.2821	983.7
332.01 K, 20986 kPa, w1 = 0.2821	984.1
332.99 K, 503 kPa, w1 = 0.1997	978.2
332.99 K, 1000 kPa, w1 = 0.1997	978.5
332.99 K, 2000 kPa, w1 = 0.1997	978.7
332.99 K, 3000 kPa, w1 = 0.1997	979.2
332.99 K, 4000 kPa, w1 = 0.1997	979.6
332.99 K, 5001 kPa, w1 = 0.1997	979.9
332.99 K, 6000 kPa, w1 = 0.1997	980.4
332.99 K, 7001 kPa, w1 = 0.1997	980.8
332.99 K, 8001 kPa, w1 = 0.1997	981.2
332.99 K, 9009 kPa, w1 = 0.1997	981.5
332.99 K, 10003 kPa, w1 = 0.1997	982
332.99 K, 11001 kPa, w1 = 0.1997	982.3
332.99 K, 12000 kPa, w1 = 0.1997	982.8
332.99 K, 13000 kPa, w1 = 0.1997	983.2
332.99 K, 14000 kPa, w1 = 0.1997	983.6
332.99 K, 14999 kPa, w1 = 0.1997	984
332.99 K, 16001 kPa, w1 = 0.1997	984.3
332.99 K, 17001 kPa, w1 = 0.1997	984.8
332.99 K, 18006 kPa, w1 = 0.1997	985.2
332.99 K, 19001 kPa, w1 = 0.1997	985.5
332.99 K, 20029 kPa, w1 = 0.1997	985.9
332.99 K, 21005 kPa, w1 = 0.1997	986.3
332.99 K, 22004 kPa, w1 = 0.1997	986.7
332.99 K, 23000 kPa, w1 = 0.1997	987
332.99 K, 24008 kPa, w1 = 0.1997	987.4
333.04 K, 1029 kPa, w1 = 0.4976	961.9
333.04 K, 1994 kPa, w1 = 0.4976	962.4
333.04 K, 3005 kPa, w1 = 0.4976	962.8
333.04 K, 4012 kPa, w1 = 0.4976	963.3
333.04 K, 4995 kPa, w1 = 0.4976	963.7
333.04 K, 5995 kPa, w1 = 0.4976	964.1
333.04 K, 7056 kPa, w1 = 0.4976	964.6
333.04 K, 7994 kPa, w1 = 0.4976	965
333.04 K, 8994 kPa, w1 = 0.4976	965.5
333.04 K, 9997 kPa, w1 = 0.4976	965.9
333.04 K, 10996 kPa, w1 = 0.4976	966.3
333.04 K, 11991 kPa, w1 = 0.4976	966.7
333.04 K, 12988 kPa, w1 = 0.4976	967.2
333.04 K, 13992 kPa, w1 = 0.4976	967.6
333.04 K, 14999 kPa, w1 = 0.4976	968
333.04 K, 15982 kPa, w1 = 0.4976	968.4
333.04 K, 16996 kPa, w1 = 0.4976	968.9
333.04 K, 17988 kPa, w1 = 0.4976	969.3
333.04 K, 18986 kPa, w1 = 0.4976	969.7
333.04 K, 19987 kPa, w1 = 0.4976	970.1
333.04 K, 21093 kPa, w1 = 0.4976	970.6
333.05 K, 1028 kPa, w1 = 0.4002	970.4
333.05 K, 1998 kPa, w1 = 0.4002	970.8
333.05 K, 3001 kPa, w1 = 0.4002	971.2
333.05 K, 4010 kPa, w1 = 0.4002	971.6
333.05 K, 5003 kPa, w1 = 0.4002	972.1
333.05 K, 5997 kPa, w1 = 0.4002	972.5
333.05 K, 7000 kPa, w1 = 0.4002	972.9
333.05 K, 8010 kPa, w1 = 0.4002	973.3
333.05 K, 8996 kPa, w1 = 0.4002	973.7
333.05 K, 9998 kPa, w1 = 0.4002	974.2
333.05 K, 10998 kPa, w1 = 0.4002	974.6
333.05 K, 12011 kPa, w1 = 0.4002	975
333.05 K, 13000 kPa, w1 = 0.4002	975.4
333.05 K, 13987 kPa, w1 = 0.4002	975.8
